Data published in patent US9266883B2, “Ring-fused bicyclic pyridyl derivatives as FGFR4 inhibitors” (Novartis AG, priority 2013, dated 2016).

How the values were obtained:
FGFR2 (406-821) = FGFR2 (406-821) (Homo sapiens (Human), UniProt P21802); experiment: In vitro biochemical assay for FGFR2
FGFR1 (407-822) = FGFR1 (407-822) (Homo sapiens (Human), UniProt P11362); experiment: In vitro biochemical assay for FGFR1
FGFR3 (411-806) = FGFR3 (411-806) (Homo sapiens (Human), UniProt P22607); experiment: In vitro biochemical assay for FGFR3
[1] = test system: HuH-7 hepatocellular carcinoma cells; experiment: CellTiter Glo (CTG) Assay; conditions: Homo sapiens, Huh-7, 72 h, read-out: HUH7 proliferation (nM) CTG
[2] = biological target: FGFR4 (GST-FGFR4(388-802)) (Homo sapiens (Human), UniProt P22455); experiment: In-vitro biochemical kinase assay for FGFR4 (Caliper microfluidic mobility shift); conditions: read-out: Biochemical FGFR4 IC50
Tel-FGFR4 = Tel-FGFR4 (Homo sapiens (Human), UniProt P22455); experiment: In vitro cellular kinase assay for FGFR4 (BaF3-Tel-FGFR4 cells, MSD capture ELISA of tyrosine phosphorylation); format: cell-based; conditions: BaF3-Tel-FGFR4 cells, 1 hour incubation; read-out: Cellular BaF3 FGFR4 IC50
Tel-FGFR4, sequence (P22455 other isoform, or with tags, fused parts or gaps): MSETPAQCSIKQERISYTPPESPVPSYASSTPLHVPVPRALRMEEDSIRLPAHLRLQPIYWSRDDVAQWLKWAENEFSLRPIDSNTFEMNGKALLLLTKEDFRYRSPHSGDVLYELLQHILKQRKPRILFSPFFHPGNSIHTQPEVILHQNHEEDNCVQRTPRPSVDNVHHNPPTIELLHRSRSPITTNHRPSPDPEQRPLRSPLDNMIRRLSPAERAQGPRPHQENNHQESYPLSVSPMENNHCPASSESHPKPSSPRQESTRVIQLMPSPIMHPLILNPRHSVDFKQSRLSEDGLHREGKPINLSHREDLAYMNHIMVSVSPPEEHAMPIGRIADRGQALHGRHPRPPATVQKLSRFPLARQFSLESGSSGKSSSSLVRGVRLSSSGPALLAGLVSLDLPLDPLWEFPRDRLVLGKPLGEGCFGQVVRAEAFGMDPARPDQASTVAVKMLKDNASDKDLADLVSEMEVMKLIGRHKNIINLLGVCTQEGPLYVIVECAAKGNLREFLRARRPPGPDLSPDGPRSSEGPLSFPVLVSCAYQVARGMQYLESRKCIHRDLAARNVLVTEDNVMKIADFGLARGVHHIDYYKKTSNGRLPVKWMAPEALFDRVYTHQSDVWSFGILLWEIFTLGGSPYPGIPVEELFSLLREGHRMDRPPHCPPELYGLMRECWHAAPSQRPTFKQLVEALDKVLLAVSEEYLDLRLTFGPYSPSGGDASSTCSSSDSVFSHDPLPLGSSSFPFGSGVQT

FGFR4 (GST-FGFR4(388-802)), sequence (P22455 388-802): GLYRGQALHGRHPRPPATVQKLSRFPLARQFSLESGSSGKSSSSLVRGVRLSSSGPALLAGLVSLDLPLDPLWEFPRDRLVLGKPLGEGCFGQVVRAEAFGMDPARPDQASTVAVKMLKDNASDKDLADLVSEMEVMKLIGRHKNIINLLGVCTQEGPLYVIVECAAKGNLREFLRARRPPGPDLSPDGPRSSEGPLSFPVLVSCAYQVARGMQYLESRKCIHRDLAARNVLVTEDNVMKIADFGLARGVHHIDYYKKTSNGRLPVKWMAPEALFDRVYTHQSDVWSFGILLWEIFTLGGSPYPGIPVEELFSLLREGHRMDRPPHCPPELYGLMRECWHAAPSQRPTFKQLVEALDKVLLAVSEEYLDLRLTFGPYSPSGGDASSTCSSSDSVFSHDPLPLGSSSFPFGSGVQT
FGFR1 (407-822), sequence (P11362 407-822): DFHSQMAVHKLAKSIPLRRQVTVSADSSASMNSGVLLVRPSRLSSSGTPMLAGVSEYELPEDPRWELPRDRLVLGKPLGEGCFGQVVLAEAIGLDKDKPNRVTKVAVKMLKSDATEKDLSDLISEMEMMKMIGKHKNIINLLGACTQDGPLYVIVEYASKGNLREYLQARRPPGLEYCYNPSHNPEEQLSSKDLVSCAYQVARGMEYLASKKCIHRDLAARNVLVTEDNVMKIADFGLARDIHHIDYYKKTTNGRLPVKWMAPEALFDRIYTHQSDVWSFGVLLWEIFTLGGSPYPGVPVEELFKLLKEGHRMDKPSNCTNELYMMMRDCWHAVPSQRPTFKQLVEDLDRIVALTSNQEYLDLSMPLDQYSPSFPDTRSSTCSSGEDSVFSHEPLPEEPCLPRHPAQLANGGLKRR
FGFR2 (406-821), sequence (P21802 406-821): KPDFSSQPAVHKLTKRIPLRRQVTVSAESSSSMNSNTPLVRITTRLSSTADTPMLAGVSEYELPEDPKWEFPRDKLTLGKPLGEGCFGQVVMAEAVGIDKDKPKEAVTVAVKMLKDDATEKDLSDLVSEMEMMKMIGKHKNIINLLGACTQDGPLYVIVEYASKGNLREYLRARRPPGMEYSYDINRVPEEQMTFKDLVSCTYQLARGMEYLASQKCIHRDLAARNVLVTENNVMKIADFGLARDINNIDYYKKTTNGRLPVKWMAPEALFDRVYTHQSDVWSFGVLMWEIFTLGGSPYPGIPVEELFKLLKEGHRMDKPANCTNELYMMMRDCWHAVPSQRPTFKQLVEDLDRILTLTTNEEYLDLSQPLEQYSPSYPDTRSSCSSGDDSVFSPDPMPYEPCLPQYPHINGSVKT
FGFR3 (411-806), sequence (P22607 411-806): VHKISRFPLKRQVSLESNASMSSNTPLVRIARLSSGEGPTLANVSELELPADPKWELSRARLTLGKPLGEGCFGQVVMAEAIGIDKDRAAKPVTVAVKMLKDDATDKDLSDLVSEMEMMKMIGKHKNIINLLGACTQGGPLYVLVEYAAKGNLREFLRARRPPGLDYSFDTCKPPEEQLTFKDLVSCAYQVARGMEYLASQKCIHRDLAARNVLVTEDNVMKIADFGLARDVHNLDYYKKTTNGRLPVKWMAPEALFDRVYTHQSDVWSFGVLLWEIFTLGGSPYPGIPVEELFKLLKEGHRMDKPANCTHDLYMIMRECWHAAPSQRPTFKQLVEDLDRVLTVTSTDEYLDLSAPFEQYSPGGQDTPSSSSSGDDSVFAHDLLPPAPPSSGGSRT

Row | IC50 (FGFR2 (406-821)) [µM] | IC50 (FGFR1 (407-822)) [µM] | IC50 (FGFR3 (411-806)) [µM] | IC50 [1] [nM] | IC50 [2] [µM] | IC50 (Tel-FGFR4) [µM] | SMILES
1 | > 10 | > 10 | > 10 | 45.5 |  |  | COCCNc1cc(NC(=O)N2CCCc3cc(CN(C)C(=O)COC)c(C=O)nc32)ncc1C#N [Example 148, N-(5-cyano-4-((2-methoxyethyl)amino)pyridin-2-yl)-7-formyl-6-((2-methoxy-N-methylacetamido)methyl)-3,4-dihydro-1,8-naphthyridine-1(2H)-carboxamide]
2 | > 10 | > 10 | > 10 | 202 |  |  | N#Cc1cnc(NC(=O)N2CCCc3cc(CO)c(C=O)nc32)cc1NCC1CCCOC1 (racemic) [Example 55, N-(5-cyano-4-(((tetrahydro-2H-pyran-3-yl)methyl)amino)pyridin-2-yl)-7-formyl-6-(hydroxymethyl)-3,4-dihydro-1,8-naphthyridine-1(2H)-carboxamide]
3 | > 10 | > 10 | > 10 | 599 |  |  | COCCOc1cc(NC(=O)N2CCCc3cc(C4CC4)c(C=O)nc32)ncc1C#N [Example 62, N-(5-cyano-4-(2-methoxyethoxyl)pyridin-2-yl)-6-cyclopropyl-7-formyl-3,4-dihydro-1,8-naphthyridine-1(2H)-carboxamide]
4 | > 10 | > 10 | > 10 | > 3000 |  |  | COCCOc1cc(NC(=O)N2CCCCc3ccc(C=O)nc32)ncc1C#N [Example 202, N-(5-cyano-4-(2-methoxyethoxyl)pyridin-2-yl)-2-formyl-7,8-dihydro-5H-pyrido[2,3-b]azepine-9(6H)-carboxamide]
5 | > 10 | > 10 | > 10 | 395 |  |  | COCCNc1cc(NC(=O)N2CCCc3cc(-c4cnc(C)s4)c(C=O)nc32)ncc1C#N [Example 252, N-(5-cyano-4-((2-methoxyethyl)amino)pyridin-2-yl)-7-formyl-6-(2-methylthiazol-5-yl)-3,4-dihydro-1,8-naphthyridine-1(2H)-carboxamide]
6 | > 10 | > 10 | > 10 |  |  |  | O=Cc1ccc2c(n1)N(C(=O)Nc1ccc(C(F)(F)F)cn1)CCO2 [Example 14, 6-formyl-N-(5-(trifluoromethyl)pyridin-2-yl)-2H-pyrido[3,2-b][1,4]oxazine-4(3H)-carboxamide]
7 | > 10 | > 10 | > 10 | 45 |  |  | CC(C)Nc1cc(NC(=O)N2CCCc3cc(CN4CCN(C)CC4=O)c(C=O)nc32)ncc1C#N [Example 95, N-(5-cyano-4-(isopropylamino)pyridin-2-yl)-7-formyl-6-((4-methyl-2-oxopiperazin-1-yl)methyl)-3,4-dihydro-1,8-naphthyridine-1(2H)-carboxamide]
8 | > 10 | > 10 | > 10 |  |  |  | CN(C)CC(C)(O)CNc1cc(NC(=O)N2CCCc3cc(CO)c(C=O)nc32)ncc1C#N (racemic) [Example 87, N-(5-cyano-4-((3-(dimethylamino)-2-hydroxy-2-methylpropyl)amino)pyridin-2-yl)-7-formyl-6-(hydroxymethyl)-3,4-dihydro-1,8-naphthyridine-1(2H)-carboxamide]
9 | > 10 | > 10 | > 10 |  |  |  | N#Cc1cnc(NC(=O)N2CCCc3cc(CO)c(C=O)nc32)cc1O[C@H]1CCOC1 [Example 50, (S)-N-(5-cyano-4-((tetrahydrofuran-3-yl)oxy)pyridin-2-yl)-7-formyl-6-(hydroxymethyl)-3,4-dihydro-1,8-naphthyridine-1(2H)-carboxamide]
10 | > 10 | > 10 | > 10 |  | 0.0325 | 0.194 | N#Cc1ccc(NC(=O)N2CCC(O)c3ccc(C=O)nc32)nc1 (racemic) [Example 79, N-(5-cyanopyridin-2-yl)-7-formyl-4-hydroxy-3,4-dihydro-1,8-naphthyridine-1(2H)-carboxamide]
11 | > 10 | > 10 | > 10 |  |  |  | COCCOc1cc(NC(=O)N2CCCc3cc(C(F)F)c(C=O)nc32)ncc1C#N [Example 63, N-(5-cyano-4-(2-methoxyethoxyl)pyridin-2-yl)-6-(difluoromethyl)-7-formyl-3,4-dihydro-1,8-naphthyridine-1(2H)-carboxamide]
12 | > 10 | > 10 | > 10 | 2540 |  |  | COCCNc1cc(NC(=O)N2CCCc3cc(N4CCC(C)C4=O)c(C=O)nc32)ncc1C#N (racemic) [Example 261, N-(5-cyano-4-((2-methoxyethyl)amino)pyridin-2-yl)-7-formyl-6-(3-methyl-2-oxopyrrolidin-1-yl)-3,4-dihydro-1,8-naphthyridine-1(2H)-carboxamide]
13 | > 10 | > 10 | > 10 |  |  |  | COCCOc1cc(NC(=O)N2CCCc3ccc(C=O)nc32)ncc1C#N [Example 23, N-(5-cyano-4-(2-methoxyethoxyl)pyridin-2-yl)-7-formyl-3,4-dihydro-1,8-naphthyridine-1(2H)-carboxamide]
14 | > 10 | > 10 | > 10 |  |  |  | COCCOc1cc(NC(=O)N2CCCc3cc(CO)c(C=O)nc32)ncc1C#N [Example 39, N-(5-cyano-4-(2-methoxyethoxyl)pyridin-2-yl)-7-formyl-6-(hydroxymethyl)-3,4-dihydro-1,8-naphthyridine-1(2H)-carboxamide]
15 | > 10 | > 10 | > 10 |  | 0.0032 | 0.0088 | COCC(C)Oc1cc(NC(=O)N2CCCc3cc(CO)c(C=O)nc32)ncc1C#N (racemic) [Example 48, N-(5-cyano-4-((1-methoxypropan-2-yl)oxy)pyridin-2-yl)-7-formyl-6-(hydroxymethyl)-3,4-dihydro-1,8-naphthyridine-1(2H)-carboxamide]
16 | > 10 | > 10 | > 10 |  |  |  | O=Cc1ccc2c(n1)N(C(=O)Nc1ccc(C(F)(F)F)cn1)CCC2 [Example 1, 7-formyl-N-(5-(trifluoromethyl)pyridin-2-yl)-3,4-dihydro-1,8-naphthyridine-1(2H)-carboxamide]
17 | > 10 | > 10 | > 10 |  |  |  | COc1cc(NC(=O)N2CCCc3ccc(C=O)nc32)ncc1C#N [Example 13, N-(5-cyano-4-methoxypyridin-2-yl)-7-formyl-3,4-dihydro-1,8-naphthyridine-1(2H)-carboxamide]
18 | > 10 | > 10 | > 10 |  |  |  | COCCNc1cc(NC(=O)N2CCCc3cc(CO)c(C=O)nc32)ncc1C#N [Example 80, N-(5-cyano-4-((2-methoxyethyl)amino)pyridin-2-yl)-7-formyl-6-(hydroxymethyl)-3,4-dihydro-1,8-naphthyridine-1(2H)-carboxamide]

Row | SMILES | IC50 (FGFR2 (406-821)) [µM] | IC50 (FGFR1 (407-822)) [µM] | IC50 (FGFR3 (411-806)) [µM] | IC50 [1] [nM] | IC50 [2] [µM] | IC50 (Tel-FGFR4) [µM]
19 | COCCOc1cc(NC(=O)N2CCCc3cc(CN(C)C)c(C=O)nc32)ncc1C#N [Example 64, N-(5-cyano-4-(2-methoxyethoxyl)pyridin-2-yl)-6-((dimethylamino)methyl)-7-formyl-3,4-dihydro-1,8-naphthyridine-1(2H)-carboxamide] | > 10 | > 10 | > 10 |  | 0.16 | 0.713
